Columns and labels:
[1] = target: full length human FXR protein (Homo sapiens (Human), UniProt Q96RI1); assay: FXR cellular assay (FXR-SRCP β-gal enzyme fragment complementation in CHO-K1 cells, chemiluminescence); assay type: cell-based; settings: CHO-K1 cells with SRCP-EA and ProLink-labeled FXR, 0-10 micromolar compound, 37° C. for 6h, read-out: EC50 FXR-cell Luminescence/
Method in brief: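 CHO-K1 cells stably expressing ProLink-tagged full-length FXR and SRCP-EA treated with compound (0-10 micromolar, 1% DMSO) for 6 h at 37 °C. Ligand-driven FXR-coactivator binding reconstitutes β-gal; chemiluminescence read after 1 h detection reagent at room temperature.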

[2] = target: ligand binding domain (LBD) of recombinant human FXR (Homo sapiens (Human), UniProt Q96RI1); assay: FXR cell free coactivator (SRC-1) recruitment assay, TR-FRET; settings: FXR LBD (amino acids 244-476) with labeled SRC-1 domain, 25° C. for 60 minutes, activity relative to CDCA maximum; read-out: EC50 FXR- Biochemical TR-FRET/μM
ligand binding domain (LBD) of recombinant human FXR, sequence (Q96RI1 254-486): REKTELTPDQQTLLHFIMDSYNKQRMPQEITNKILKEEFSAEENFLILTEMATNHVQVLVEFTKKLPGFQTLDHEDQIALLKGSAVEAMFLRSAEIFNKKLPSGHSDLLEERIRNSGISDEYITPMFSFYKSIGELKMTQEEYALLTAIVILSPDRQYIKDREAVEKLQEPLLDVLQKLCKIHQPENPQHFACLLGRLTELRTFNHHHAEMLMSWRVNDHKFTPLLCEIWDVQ
ligand binding domain (LBD) of recombinant human FXR, sequence (Q15788 whole entry partner, the tested form may be a part): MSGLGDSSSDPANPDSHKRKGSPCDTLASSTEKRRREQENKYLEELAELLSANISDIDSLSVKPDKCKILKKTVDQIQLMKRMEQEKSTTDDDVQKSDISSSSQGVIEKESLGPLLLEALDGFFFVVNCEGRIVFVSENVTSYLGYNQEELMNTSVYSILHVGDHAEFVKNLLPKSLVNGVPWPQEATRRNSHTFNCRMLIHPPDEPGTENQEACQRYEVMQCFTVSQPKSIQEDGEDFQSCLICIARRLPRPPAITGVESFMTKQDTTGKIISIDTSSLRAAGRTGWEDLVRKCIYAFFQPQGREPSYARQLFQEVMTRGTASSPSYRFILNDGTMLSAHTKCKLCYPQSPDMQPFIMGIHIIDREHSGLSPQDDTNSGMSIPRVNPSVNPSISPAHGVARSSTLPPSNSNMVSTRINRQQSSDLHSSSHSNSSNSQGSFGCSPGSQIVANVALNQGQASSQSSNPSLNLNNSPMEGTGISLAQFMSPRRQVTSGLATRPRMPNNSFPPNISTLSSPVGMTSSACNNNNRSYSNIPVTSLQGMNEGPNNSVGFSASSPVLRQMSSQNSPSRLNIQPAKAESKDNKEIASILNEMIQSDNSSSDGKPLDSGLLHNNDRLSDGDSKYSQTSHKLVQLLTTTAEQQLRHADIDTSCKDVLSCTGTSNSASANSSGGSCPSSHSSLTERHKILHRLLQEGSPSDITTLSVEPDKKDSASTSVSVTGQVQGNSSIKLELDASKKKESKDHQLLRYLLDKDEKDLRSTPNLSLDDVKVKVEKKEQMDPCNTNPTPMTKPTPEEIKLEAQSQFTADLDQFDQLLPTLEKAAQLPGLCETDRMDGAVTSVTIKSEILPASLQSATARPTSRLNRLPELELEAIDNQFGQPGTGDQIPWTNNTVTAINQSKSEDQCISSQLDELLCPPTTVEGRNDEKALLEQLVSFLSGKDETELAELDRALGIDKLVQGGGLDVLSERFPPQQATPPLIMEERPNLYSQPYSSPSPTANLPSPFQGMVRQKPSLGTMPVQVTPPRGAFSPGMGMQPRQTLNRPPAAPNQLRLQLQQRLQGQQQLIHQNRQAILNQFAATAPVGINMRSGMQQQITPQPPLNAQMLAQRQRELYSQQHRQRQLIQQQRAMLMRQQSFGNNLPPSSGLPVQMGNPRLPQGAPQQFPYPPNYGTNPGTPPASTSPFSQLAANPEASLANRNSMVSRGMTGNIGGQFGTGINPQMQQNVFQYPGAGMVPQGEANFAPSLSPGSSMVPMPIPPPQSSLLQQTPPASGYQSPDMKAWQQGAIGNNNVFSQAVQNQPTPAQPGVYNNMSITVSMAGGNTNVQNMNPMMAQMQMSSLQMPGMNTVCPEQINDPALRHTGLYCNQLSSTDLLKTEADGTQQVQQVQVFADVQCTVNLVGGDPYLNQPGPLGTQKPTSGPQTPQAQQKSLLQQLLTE
Method in brief: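 Purified SF9-expressed FXR LBD (aa 244-476) was incubated with compounds (0-10 micromolar) and labeled SRC-1 interaction domain in TR-FRET coregulator buffer G, 60 min at 25° C, 1.2% DMSO. Activity at each concentration was taken as percent of maximal CDCA response to build dose-response curves.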

full length human FXR protein, sequence (Q96RI1 whole entry, the tested form may be a part): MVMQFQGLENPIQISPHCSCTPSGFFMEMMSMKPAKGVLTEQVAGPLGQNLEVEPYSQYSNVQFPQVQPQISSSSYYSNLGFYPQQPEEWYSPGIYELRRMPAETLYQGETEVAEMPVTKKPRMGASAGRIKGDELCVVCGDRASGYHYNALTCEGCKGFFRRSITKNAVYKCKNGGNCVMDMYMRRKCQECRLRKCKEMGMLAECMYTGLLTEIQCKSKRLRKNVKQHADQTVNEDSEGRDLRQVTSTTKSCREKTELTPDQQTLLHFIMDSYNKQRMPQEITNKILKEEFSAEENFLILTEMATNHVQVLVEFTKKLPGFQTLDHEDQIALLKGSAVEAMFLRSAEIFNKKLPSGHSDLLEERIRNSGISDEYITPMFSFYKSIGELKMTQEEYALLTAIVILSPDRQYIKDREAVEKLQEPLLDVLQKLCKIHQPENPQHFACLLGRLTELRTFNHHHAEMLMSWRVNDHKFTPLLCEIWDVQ

| EC50 [1] [nM] | EC50 [2] [µM] | SMILES |
| --- | --- | --- |
| 702 | 0.142 | C[C@H]1CN(c2ccc(-c3noc(=O)[nH]3)cc2)CC[C@@H]1OCc1c(-c2c(Cl)cccc2Cl)noc1C1CC1 [Example 33, 3-(4-((3S,4S)-4-((5-cyclopropyl-3-(2,6-dichlorophenyl)isoxazol-4-yl)methoxy)-3-methylpiperidin-1-yl)phenyl)-1,2,4-oxadiazol-5(4H)-one] |
| 418 | 0.0633 | C[C@H]1C[C@@H](OCc2c(-c3c(Cl)cccc3Cl)noc2C2CC2)CCN1c1ccc(-c2noc(=O)[nH]2)cc1 [Example 22, 3-(4-((2S,4S)-4-((5-cyclopropyl-3-(2,6-dichlorophenyl)isoxazol-4-yl)methoxy)-2-methylpiperidin-1-yl)phenyl)-1,2,4-oxadiazol-5(4H)-one] |
| 2660 | 0.215 | O=c1[nH]c(-c2ccc(N3CCC(OCc4c(-c5c(F)cccc5F)noc4C4CC4)C(F)(F)C3)nc2)no1 (stereo not shown) [Example 63, 3-(6-(4-((5-cyclopropyl-3-(2,6-difluorophenyl)isoxazol-4-yl)methoxy)-3,3-difluoropiperidin-1-yl)pyridin-3-yl)-1,2,4-oxadiazol-5(4H)-one] |
| 1450 | 0.107 | O=c1[nH]c(-c2ccc(N3CCC(OCc4c(-c5c(F)cccc5F)noc4C4CC4)CC3)nc2)no1 [Example 74, 3-(6-(4-((5-cyclopropyl-3-(2,6-difluorophenyl)isoxazol-4-yl)methoxy)piperidin-1-yl)pyridin-3-yl)-1,2,4-oxadiazol-5(4H)-one] |
| 24.7 | 0.0021 | C[C@@H]1C[C@H](OCc2c(-c3c(Cl)cccc3Cl)noc2C2CC2)CCN1c1ccc(-c2noc(=O)[nH]2)cn1 [Example 71, 3-(6-((2R,4R)-4-((5-cyclopropyl-3-(2,6-dichlorophenyl)isoxazol-4-yl)methoxy)-2-methylpiperidin-1-yl)pyridin-3-yl)-1,2,4-oxadiazol-5(4H)-one] |
| 324 | 0.0435 | O=c1[nH]c(-c2ccc(N3CCC(OCc4c(-c5c(Cl)cccc5Cl)noc4C4CC4)CC3)s2)no1 [Example 35, 3-(5-(4-((5-cyclopropyl-3-(2,6-dichlorophenyl)isoxazol-4-yl)methoxy)piperidin-1-yl)thiophen-2-yl)-1,2,4-oxadiazol-5(4H)-one] |
| 264 | 0.0179 | O=c1cc(-c2ccc(N3CCC(OCc4c(-c5c(Cl)cccc5Cl)noc4C4CC4)CC3)nc2)o[nH]1 [Example 59, 5-(6-(4-((5-cyclopropyl-3-(2,6-dichlorophenyl)isoxazol-4-yl)methoxy)piperidin-1-yl)pyridin-3-yl)isoxazol-3(2H)-one] |
| > 10000 | 0.233 | Cn1nc(N2CCC(OCc3c(-c4c(Cl)cccc4Cl)noc3C3CC3)CC2)cc1-c1noc(=O)[nH]1 [Example 70, 3-(3-(4-((5-cyclopropyl-3-(2,6-dichlorophenyl)isoxazol-4-yl)methoxy)piperidin-1-yl)-1-methyl-1H-pyrazol-5-yl)-1,2,4-oxadiazol-5(4H)-one] |
| 960 | 0.227 | CCOc1cccc(F)c1-c1noc(C2CC2)c1COC1CCN(c2ccc(-c3noc(=O)[nH]3)cc2)CC1 [Example 27, 3-(4-(4-((5-cyclopropyl-3-(2-ethoxy-6-fluorophenyl)isoxazol-4-yl)methoxy)piperidin-1-yl)phenyl)-1,2,4-oxadiazol-5(4H)-one] |
| 76.7 | 0.0037 | O=c1[nH]c(-c2ccc(N3CCCC(OCc4c(-c5ccccc5OC(F)(F)F)noc4C4CC4)CC3)cc2)no1 (stereo not shown) [Example 47, 3-(4-(4-((5-cyclopropyl-3-(2-(trifluoromethoxy)phenyl)isoxazol-4-yl)methoxy)azepan-1-yl)phenyl)-1,2,4-oxadiazol-5(4H)-one] |
| 409 | 0.0091 | O=c1[nH]nc(-c2ccc(N3CCC(OCc4c(-c5c(Cl)cccc5Cl)noc4C4CC4)CC3)cc2)c(=O)[nH]1 [Example 10, 6-(4-(4-((5-cyclopropyl-3-(2,6-dichlorophenyl)isoxazol-4-yl)methoxy)piperidin-1-yl)phenyl)-1,2,4-triazine-3,5(2H,4H)-dione] |
| 1230 | 0.105 | O=c1[nH]c(-c2cccc(N3CCC(OCc4c(-c5c(Cl)cccc5Cl)noc4C4CC4)CC3)c2)no1 [Example 7, 3-(3-(4-((5-cyclopropyl-3-(2,6-dichlorophenyl)isoxazol-4-yl)methoxy)piperidin-1-yl)phenyl)-1,2,4-oxadiazol-5(4H)-one] |
| 437 | 0.0737 | O=c1[nH]nc(-c2ccc(N3CCC(OCc4c(-c5c(Cl)cccc5Cl)noc4C4CC4)CC3)cc2)o1 [Example 12, 5-(4-(4-((5-cyclopropyl-3-(2,6-dichlorophenyl)isoxazol-4-yl)methoxy)piperidin-1-yl)phenyl)-1,3,4-oxadiazol-2(3H)-one] |
| 562 | 0.111 | O=c1[nH]c(-c2ccc(N3CCC(OCc4c(-c5c(F)cccc5F)noc4C4CC4)CC3)cc2)no1 [Example 26, 3-(4-(4-((5-cyclopropyl-3-(2,6-difluorophenyl)isoxazol-4-yl)methoxy)piperidin-1-yl)phenyl)-1,2,4-oxadiazol-5(4H)-one] |
| 3190 | 0.231 | O=c1[nH]c(-c2coc(N3CCC(OCc4c(-c5c(Cl)cccc5Cl)noc4C4CC4)CC3)n2)no1 [Example 29, 3-(2-(4-((5-cyclopropyl-3-(2,6-dichlorophenyl)isoxazol-4-yl)methoxy)piperidin-1-yl)oxazol-4-yl)-1,2,4-oxadiazol-5(4H)-one] |
| 2110 | 0.0281 | O=c1[nH]c(-c2ncc(N3CCC(OCc4c(-c5c(Cl)cccc5Cl)noc4C4CC4)CC3)cn2)no1 [Example 8, 3-(5-(4-((5-cyclopropyl-3-(2,6-dichlorophenyl)isoxazol-4-yl)methoxy)piperidin-1-yl)pyrimidin-2-yl)-1,2,4-oxadiazol-5(4H)-one] |
| 149 | 0.0117 | O=c1[nH]c(-c2ccc(N3CCCC(OCc4c(-c5c(F)cccc5F)noc4C4CC4)CC3)cc2)no1 (stereo not shown) [Example 49, 3-(4-(4-((5-cyclopropyl-3-(2,6-difluorophenyl)isoxazol-4-yl)methoxy)azepan-1-yl)phenyl)-1,2,4-oxadiazol-5(4H)-one] |
| 779 | 0.104 | O=c1cc(-c2ccc(N3CCC(OCc4c(-c5ccccc5OC(F)(F)F)noc4C4CC4)CC3)nc2)o[nH]1 [Example 60, 5-(6-(4-((5-cyclopropyl-3-(2-(trifluoromethoxy)phenyl)isoxazol-4-yl)methoxy)piperidin-1-yl)pyridin-3-yl)isoxazol-3(2H)-one] |
| 113 | 0.0188 | O=c1[nH]c(-c2ccc(N3CCC(OCc4c(-c5ccccc5OC(F)(F)F)noc4C4CC4)CC3)cc2)no1 [Example 36, 3-(4-(4-((5-cyclopropyl-3-(2-(trifluoromethoxy)phenyl)isoxazol-4-yl)methoxy)piperidin-1-yl)phenyl)-1,2,4-oxadiazol-5(4H)-one] |
| 271 | 0.045 | C[C@@H]1CN(c2ccc(-c3noc(=O)[nH]3)cc2)CC[C@@H]1OCc1c(-c2c(Cl)cccc2Cl)noc1C1CC1 [Example 31, 3-(4-((3R,4S)-4-((5-cyclopropyl-3-(2,6-dichlorophenyl)isoxazol-4-yl)methoxy)-3-methylpiperidin-1-yl)phenyl)-1,2,4-oxadiazol-5(4H)-one] |
| 372 | 0.0044 | O=c1[nH]c(-c2ccc(N3CCC(OCc4c(-c5c(Cl)cccc5Cl)noc4C4CC4)CC3)nc2)no1 [Example 6, 3-(6-(4-((5-cyclopropyl-3-(2,6-dichlorophenyl)isoxazol-4-yl)methoxy)piperidin-1-yl)pyridin-3-yl)-1,2,4-oxadiazol-5(4H)-one] |
| 852 | 0.174 | O=c1[nH]c(-c2ccc(N3CCC(OCc4c(-c5c(F)cccc5F)noc4C4CC4)C(F)(F)C3)cc2)no1 (stereo not shown) [Example 55, 3-(4-(4-((5-cyclopropyl-3-(2,6-difluorophenyl)isoxazol-4-yl)methoxy)-3,3-difluoropiperidin-1-yl)phenyl)-1,2,4-oxadiazol-5(4H)-one] |
| 263 | 0.0286 | O=c1[nH]c(-c2csc(N3CCC(OCc4c(-c5c(Cl)cccc5Cl)noc4C4CC4)CC3)c2)no1 [Example 38, 3-(5-(4-((5-cyclopropyl-3-(2,6-dichlorophenyl)isoxazol-4-yl)methoxy)piperidin-1-yl)thiophen-3-yl)-1,2,4-oxadiazol-5(4H)-one] |
| 785 | 0.153 | C[C@@H]1CN(c2ccc(-c3noc(=O)[nH]3)cc2)CC[C@H]1OCc1c(-c2c(Cl)cccc2Cl)noc1C1CC1 [Example 34, 3-(4-((3R,4R)-4-((5-cyclopropyl-3-(2,6-dichlorophenyl)isoxazol-4-yl)methoxy)-3-methylpiperidin-1-yl)phenyl)-1,2,4-oxadiazol-5(4H)-one] |

| SMILES | EC50 [1] [nM] | EC50 [2] [µM] |
| --- | --- | --- |
| O=c1[nH]c(-c2ccc(N3[C@@H]4CC[C@H]3C[C@@H](OCc3c(-c5ccccc5OC(F)(F)F)noc3C3CC3)C4)cc2)no1 [Example 50, 3-(4-((1R,3r,5S)-3-((5-cyclopropyl-3-(2-(trifluoromethoxy)phenyl)isoxazol-4-yl)methoxy)-8-azabicyclo[3.2.1]octan-8-yl)phenyl)-1,2,4-oxadiazol-5(4H)-one] | 53.8 | 0.0032 |
| Clc1cccc(Cl)c1-c1noc(C2CC2)c1COC1CCN(c2ccc(C3=NN3)cc2)CC1 [Example 2, 4-(((1-(4-(1H-diazirin-3-yl)phenyl)piperidin-4-yl)oxy)methyl)-5-cyclopropyl-3-(2,6-dichlorophenyl)isoxazole] | 691 | 2.89 |
